Measured values published in US20180028681A1, “COMBINATION THERAPY USING A CD19-ADC AND VINCRISTINE” (SEATTLE GENETICS, INC., priority 2015, published 2018).

Test system: NALM6 cells
Assay: In vitro cytotoxicity (CellTiter-Glo) on NALM6 cells
Assay type: cell-based
Details: 96 hours, minimally/low effective dose used for the combination
Description: Isobolograms: Cells were plated at 5000 per well in 384 well plates using Fluid-X liquid handler (Fluid-X, Boston, Mass.). SGN-CD19A and Vincristine were plated separately and serial diluted in 2×96 well plates per drug. SGN-CD19A and Vincristine were added to 384 well plates, either alone or in combination at range above and below the IC50 for each single agent using the Hamilton STAR automation robotics (Hamilton, Reno, Nev.). Cells were kept at 37° C. for 96 hours. Cell viability readout was performed using the CellTiter-Glo assay (Promega, Madison, Wis.). Luminescence was measured using the Envision plate reader (Perkin Elmer, Waltham, Mass.). Activity was determined by the luminescence of treated cells compared to that of untreated cells.
To verify the results of the in vivo SGN-CD19A plus vincristine or SGN-CD19A plus doxorubicin combinations, in vitro cytotoxicity experiments were performed. […] The concentration of each agent was serially diluted to include doses that would have no cytotoxicity to doses that would kill all cells. […] NALM-6 cells were also incubated with a combination of SGN-CD19A and doxorubicin, in a similar manner.

Row | Compound | cell kill as a single agent
1 | CC[C@]1(O)C[C@H]2CN(CCc3c([nH]c4ccccc34)[C@@](C(=O)OC)(c3cc4c(cc3OC)N(C=O)[C@H]3[C@@](O)(C(=O)OC)[C@H](OC(C)=O)[C@]5(CC)C=CCN6CC[C@]43[C@@H]65)C2)C1 [Vincristine] | approximately 5%
2 | COc1cccc2c1C(=O)c1c(O)c3c(c(O)c1C2=O)C[C@@](O)(C(=O)CO)C[C@@H]3O[C@H]1C[C@H](N)[C@H](O)[C@H](C)O1 [Doxorubicin] | approximately 20%
